# In ChEMBL document CHEMBL1201862, “PubChem BioAssay data set” (2004):
# Active and inactive are the calls of the source.
# Key:
# Mu-type opioid receptor [1] = molecular target: T1, Mu-type opioid receptor (Homo sapiens, UniProt P35372); format: functional, cell-based
# [2] = molecular target: 5-hydroxytryptamine receptor 2A (Mus musculus, UniProt P35363); format: functional, cell-based;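 note: CHO-K1 cells with tagged receptor and beta-arrestin; agonist potency measured as compound-induced activation of the receptor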
# [3] = molecular target: Fructose-bisphosphate aldolase (Mycobacterium tuberculosis, UniProt P9WQA3); experiment: Fluorescence-based biochemical high throughput dose response assay for inhibitors of the fructose-bisphosphate aldolase (FBA) of M. tuberculosis.; format: functional
# [4] = growth suppression of beta-catenin-knockout colon cells, dose response, cell-based, HCT116, human colon tumor (AID 1045); format: functional;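 note: HCT116 colon tumor cells with beta catenin knocked out; cells exposed to compound for 60 hours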
# [5] = molecular target: Hepatocyte nuclear factor 4-alpha (Homo sapiens, UniProt P41235); format: functional, cell-based;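 note: biochemical luminescence-based dose-response counterscreen measuring inhibition of HNF4 dimerization, run alongside a screen for blockers of ABHD5–perilipin-5 interaction; split luciferase complementation of HNF4 fusion proteins in cell lysate measuring dimerization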
# [6] = growth suppression of PTEN-null colon cells, dose response, cell-based, HCT116 PTEN knockout (AID 1047); format: functional;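 note: HCT116 colon tumor cells with PTEN knocked out; cells exposed to compound for 60 hours before readout; potency for loss of cell viability measured by luminescence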
# [7] = cytotoxicity in HEK-293T cells, dose response, cytotoxicity control for BCR NF-kB inhibitor project, luminescence, B-cell screen hits (AID 489021); format: functional, cell-based;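 note: HEK-293T cells carrying an NF-kB luciferase reporter; cells exposed to compound for about 14 hours before viability readout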
# Cytochrome P450 3A4 = Cytochrome P450 3A4 (Homo sapiens, UniProt P08684);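 note: CYP3A4 tested as one member of a cytochrome P450 panel screen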
# fMet-Leu-Phe receptor = fMet-Leu-Phe receptor (Homo sapiens, UniProt P21462); experiment: FPR ligands, dose response (AID 519); format: functional
# [8] = molecular target: T2, Polyadenylate-binding protein 1 (Homo sapiens, UniProt P11940); experiment: PABP1 MLLE–PAM2 interaction inhibitors, dose response, miRNA deadenylation inhibitor project, biochemical, fluorescence polarization, Cy5-PAM2 peptide, secondary (AID 602260); format: functional; conditions: read-out: IC50_Mean
# [9] = molecular target: Botulinum neurotoxin type F (Clostridium botulinum, UniProt P30996); experiment: High-throughput multiplex microsphere dose response for inhibitors of toxin protease, specifically Botulinum neurotoxin light chain F protease, compounds from Cherry Pick 02.; format: functional; conditions: read-out: EC50_MICROM
# [10] = molecular target: T2, Polyadenylate-binding protein 1; experiment: PABP1 MLLE–PAM2 binding inhibitor potency, dose response, biochemical, fluorescence polarization, FITC-PAM2 peptide (AID 602259); format: functional; conditions: read-out: IC50_Mean
# [11] = Luminescence Cell-Based Dose Confirmation HTS to Identify Inhibitors of Platelet Dense Granule Release. [Related pubchem assays: 1663 (Primary HTS), 1678 (Summary of Project)]; format: functional
# [12] = molecular target: Nuclear receptor subfamily 5 group A member 2 (Homo sapiens, UniProt O00482); format: functional, cell-based;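 note: HEK293T cells transfected with LRH-1 and a StAR promoter luciferase reporter; potency for inhibitors that lower LRH-1 driven reporter light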
# [13] = molecular target: Luciferin 4-monooxygenase (Photinus pyralis, UniProt P08659); experiment: firefly luciferase enzyme inhibitors, dose response, biochemical, luminescence (AID 1891)
# Steroidogenic factor 1 = Steroidogenic factor 1 (Homo sapiens, UniProt Q13285); experiment: Counterscreen for inverse agonists of the liver receptor homolog-1 (LRH-1; NR5A2): Luminescence-based cell-based high throughput dose response assay to identify inverse agonists of the Steroidogenic Factor 1 Nuclear Receptor (SF1; NR5A1).; format: functional
# [14] = StAR promoter reporter inhibition counter-screen, dose response, counter-screen for LRH-1 inverse agonist project, cell-based, luminescence, luciferase reporter (AID 651969); format: functional
# Beta-galactosidase [15] = molecular target: T3, Beta-galactosidase (Escherichia coli, UniProt Q8VNN2); experiment: Dose response counterscreen for EBI2 assay utilizing the enzyme, b-galactosidase.; format: functional
# [16] = molecular target: DNA dC->dU-editing enzyme APOBEC-3G (Homo sapiens, UniProt Q9HC16); format: functional;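 note: Dose-response counterscreen measuring inhibition of APOBEC3G DNA deaminase activity, run while confirming APOBEC3A inhibitors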
# [17] = molecular target: DNA dC->dU-editing enzyme APOBEC-3A (Homo sapiens, UniProt P31941); experiment: Dose Response confirmation of small molecule APOBEC3A DNA Deaminase Inhibitors via a fluorescence-based single-stranded DNA deaminase assay. [Related pubchem assays (depositor defined):AID493011, AID493024]; format: functional
# Prothrombin = Prothrombin (Bos taurus, UniProt P00735); experiment: thrombin inhibition, dose response, biochemical, fluorescence polarization, uHTS hits (AID 602369); format: functional
# [18] = molecular target: 26S proteasome non-ATPase regulatory subunit 14 (Homo sapiens, UniProt O00487); experiment: inhibition of proteasome subunit RPN11 – biochemical, fluorescence polarization, uHTS hits, confirmation (AID 602368); format: functional
# [19] = molecular target: 72 kDa type IV collagenase (Homo sapiens, UniProt P08253); experiment: Dose Response validation of uHTS RPN11 inhibitor hits using a MMP-2 Fluorescence assay.; format: functional
# Nonstructural protein 1 = Nonstructural protein 1 (Influenza A virus, UniProt Q194T2); format: functional, Influenza A virus (A/California/07/2009(H1N1))
# cells [20] = format: functional, cell-based
# [21] = molecular target: Nuclear receptor subfamily 0 group B member 1 (Homo sapiens, UniProt P51843); format: functional, cell-based;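 note: HEK293T cells transfected with SF-1 and DAX-1 plus StAR promoter luciferase reporter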
# [22] = inhibitors of intracellular T. cruzi replication, confirmation, NIH3T3 host cells, beta-gal luminescence (AID 2044); format: functional, cell-based;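 note: intracellular parasites grown in NIH/3T3 mouse fibroblasts as host cells; luminescent beta-galactosidase reporter signal from transgenic T. cruzi replicating inside host cells; inhibitors lower the luminescence signal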
# [23] = molecular target: DNA repair protein RAD52 homolog (Homo sapiens, UniProt P43351); format: functional, biochemical
# [24] = Luminescence Cell-Based Dose Retest to Confirm Inhibitors of Cancer Stem Cells. [Related pubchem assays (depositor defined):AID2717, AID2721]; format: functional; conditions: Homo sapiens
# [25] = cytotoxicity toward NIH3T3 fibroblasts, dose response, counter-screen, cell-based, ATP luminescence, mouse fibroblasts (AID 2010); format: functional;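 note: cells exposed to compound for about 90 hours before reading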
# [26] = human group III sPLA2 inhibitors, dose response, biochemical, QFRET, IC50 (AID 743457);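 note: green fluorescence rise as the enzyme cleaves BODIPY PC-A2 in liposomes; potency for inhibition of the enzyme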
# Melanocortin receptor 4 = Melanocortin receptor 4 (Homo sapiens, UniProt P32245); format: functional, cell-based;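 note: Cell-based assay with luminescence read-out, confirmatory dose-response testing for agonist activity of biased ligands at MC4R; human U2OS cells with tagged receptor and beta-arrestin; potency of agonists that increase receptor coupling to beta-arrestin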
# [27] = molecular target: T4, Trace amine-associated receptor 1 (Homo sapiens, UniProt Q96RJ0); experiment: Fluorescence-based cell-based high throughput dose response assay to identify agonists of the human trace amine associated receptor 1 (TAAR1).; format: functional
# T4 sequence (Q96RJ0 whole entry): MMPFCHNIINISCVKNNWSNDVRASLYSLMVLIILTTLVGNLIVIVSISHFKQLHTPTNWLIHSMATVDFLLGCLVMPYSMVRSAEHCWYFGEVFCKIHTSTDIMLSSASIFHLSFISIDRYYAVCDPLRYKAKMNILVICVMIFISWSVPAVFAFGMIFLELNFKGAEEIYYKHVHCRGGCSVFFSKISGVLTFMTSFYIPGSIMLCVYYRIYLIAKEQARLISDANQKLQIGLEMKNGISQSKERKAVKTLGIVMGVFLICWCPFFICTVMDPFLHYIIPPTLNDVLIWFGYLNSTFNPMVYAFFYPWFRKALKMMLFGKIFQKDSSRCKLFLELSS
# cells [28] = format: functional, cell-based; remark: listed apart in the source
# [29] = molecular target: T4, Trace amine-associated receptor 1; experiment: Counterscreen for agonists of the human trace amine associated receptor 1 (hTAAR1): Fluorescence-based cell-based high throughput dose response assay to identify hTAAR1 agonist that also desensitize TAAR1 receptor response.; format: functional
# cells [30] = format: functional, cell-based; remark: listed apart in the source
# [31] = molecular target: T5, Delta-type opioid receptor (Homo sapiens, UniProt P41143); experiment: HTS Image-Based Screen for Agonists of the DOR Receptor. [Related pubchem assays (depositor defined):AID1777, AID1786, AID2133]; format: functional
# [32] = molecular target: T6, Kappa-type opioid receptor (Homo sapiens, UniProt P41145); format: functional
# [33] = molecular target: T5, Delta-type opioid receptor; experiment: HTS Image-Based Screen for Antagonists of the DOR Receptor. [Related pubchem assays (depositor defined):AID1777, AID1785, AID1786, AID2133]; format: functional
# [34] = Counterscreen for activators of the function of SWI/SNF related, matrix associated, actin dependent regulator of chromatin, subfamily a, member 2 (SMARCA2, BRM): Luminescence-based cell-based high throughput dose response assay to identify non-selective compounds using the VP16 reporter assay.; format: functional
# Mu-type opioid receptor [35] = molecular target: T1, Mu-type opioid receptor; experiment: HTS Image-Based Screen for Agonists of the MOR Receptor. [Related pubchem assays (depositor defined):AID1777, AID1785, AID1786, AID2133]; format: functional
# [36] = molecular target: SWI/SNF-related matrix-associated actin-dependent regulator of chromatin subfamily A member 2 (Homo sapiens, UniProt P51531); experiment: Luminescence-based cell-based high throughput dose response assay to identify activators of the function of SWI/SNF related, matrix associated, actin dependent regulator of chromatin, subfamily a, member 2 (SMARCA2, BRM).; format: functional
# Beta-galactosidase [37] = molecular target: T3, Beta-galactosidase; format: functional
# [38] = molecular target: T6, Kappa-type opioid receptor; format: functional; remark: listed apart in the source
# [39] = ADAM10 inhibitors, peptide cleavage, dose response, biochemical, QFRET (AID 743254);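 note: ADAM10 enzyme with the DM2 quenched FRET peptide as substrate; EDANS fluorescence gain as the protease cuts the substrate; inhibitor potency against ADAM10 proteolytic activity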
# [40] = molecular target: Disintegrin and metalloproteinase domain-containing protein 17 (Homo sapiens, UniProt P78536); experiment: ADAM17 protease inhibitors, dose response, counter-screen for ADAM10 exosite inhibitor project, biochemical, quenched FRET substrate (AID 743253)
# T1 sequence (P35372 whole entry): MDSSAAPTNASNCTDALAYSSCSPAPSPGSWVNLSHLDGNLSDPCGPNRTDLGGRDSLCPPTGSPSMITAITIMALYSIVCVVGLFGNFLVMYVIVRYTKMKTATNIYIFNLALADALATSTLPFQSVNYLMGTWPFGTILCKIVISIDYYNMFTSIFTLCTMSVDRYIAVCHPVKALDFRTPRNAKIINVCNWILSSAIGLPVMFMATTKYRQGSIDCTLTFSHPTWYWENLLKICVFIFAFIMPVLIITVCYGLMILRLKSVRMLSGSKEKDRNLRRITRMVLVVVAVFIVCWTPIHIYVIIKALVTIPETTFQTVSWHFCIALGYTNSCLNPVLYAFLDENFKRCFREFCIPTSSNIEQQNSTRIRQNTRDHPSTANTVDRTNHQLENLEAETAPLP
# T3 sequence (Q8VNN2 whole entry): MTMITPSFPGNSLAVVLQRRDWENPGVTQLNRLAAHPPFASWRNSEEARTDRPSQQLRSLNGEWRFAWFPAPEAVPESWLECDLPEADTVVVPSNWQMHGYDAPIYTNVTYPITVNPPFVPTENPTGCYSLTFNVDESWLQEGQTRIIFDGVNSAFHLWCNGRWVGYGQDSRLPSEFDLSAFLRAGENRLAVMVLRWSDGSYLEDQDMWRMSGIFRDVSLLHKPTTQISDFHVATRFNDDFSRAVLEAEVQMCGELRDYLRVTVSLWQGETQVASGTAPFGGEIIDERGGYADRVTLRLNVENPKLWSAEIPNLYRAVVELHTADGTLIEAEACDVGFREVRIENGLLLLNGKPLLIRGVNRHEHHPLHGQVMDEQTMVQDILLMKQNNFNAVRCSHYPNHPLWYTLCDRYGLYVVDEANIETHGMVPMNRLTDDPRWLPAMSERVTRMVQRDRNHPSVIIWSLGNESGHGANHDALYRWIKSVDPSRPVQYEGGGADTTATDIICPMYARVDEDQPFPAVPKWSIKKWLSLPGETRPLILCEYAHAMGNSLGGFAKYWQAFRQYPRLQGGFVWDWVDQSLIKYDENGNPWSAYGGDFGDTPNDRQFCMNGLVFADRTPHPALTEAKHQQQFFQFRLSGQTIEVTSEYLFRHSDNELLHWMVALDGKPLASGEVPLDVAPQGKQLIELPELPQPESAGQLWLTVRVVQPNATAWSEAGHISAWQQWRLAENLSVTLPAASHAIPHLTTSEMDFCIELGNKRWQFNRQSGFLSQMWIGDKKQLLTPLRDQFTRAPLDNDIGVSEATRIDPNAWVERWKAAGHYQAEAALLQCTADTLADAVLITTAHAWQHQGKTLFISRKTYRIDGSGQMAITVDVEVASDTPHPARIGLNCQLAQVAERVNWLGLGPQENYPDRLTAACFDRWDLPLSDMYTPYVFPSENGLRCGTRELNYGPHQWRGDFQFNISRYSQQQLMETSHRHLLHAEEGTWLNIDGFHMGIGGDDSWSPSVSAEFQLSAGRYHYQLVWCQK
# Chain of Nuclear receptor subfamily 0 group B member 1 (P51843 whole entry): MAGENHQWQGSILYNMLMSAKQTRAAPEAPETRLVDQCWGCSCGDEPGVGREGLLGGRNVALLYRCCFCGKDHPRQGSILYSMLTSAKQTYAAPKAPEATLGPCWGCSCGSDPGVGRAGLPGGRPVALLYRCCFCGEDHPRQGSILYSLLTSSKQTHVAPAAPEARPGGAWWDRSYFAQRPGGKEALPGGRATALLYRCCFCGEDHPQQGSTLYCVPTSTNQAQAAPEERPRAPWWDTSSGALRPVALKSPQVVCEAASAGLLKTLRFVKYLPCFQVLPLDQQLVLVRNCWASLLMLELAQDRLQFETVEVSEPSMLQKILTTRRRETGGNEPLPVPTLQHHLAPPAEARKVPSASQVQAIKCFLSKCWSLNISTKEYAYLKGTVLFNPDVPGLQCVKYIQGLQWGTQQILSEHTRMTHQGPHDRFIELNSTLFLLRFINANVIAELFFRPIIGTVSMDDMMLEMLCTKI
# Chain of Fructose-bisphosphate aldolase (P9WQA3 whole entry): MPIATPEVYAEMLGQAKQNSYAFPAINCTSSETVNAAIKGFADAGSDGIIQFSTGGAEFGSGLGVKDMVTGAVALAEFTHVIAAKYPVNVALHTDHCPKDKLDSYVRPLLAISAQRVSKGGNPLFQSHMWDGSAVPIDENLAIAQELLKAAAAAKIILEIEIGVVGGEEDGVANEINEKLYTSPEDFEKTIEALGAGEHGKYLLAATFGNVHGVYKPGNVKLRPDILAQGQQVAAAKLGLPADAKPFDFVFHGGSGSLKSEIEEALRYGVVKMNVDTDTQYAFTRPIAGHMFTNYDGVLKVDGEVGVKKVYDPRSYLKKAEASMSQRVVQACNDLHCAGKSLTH
# T6 sequence (P41145 whole entry): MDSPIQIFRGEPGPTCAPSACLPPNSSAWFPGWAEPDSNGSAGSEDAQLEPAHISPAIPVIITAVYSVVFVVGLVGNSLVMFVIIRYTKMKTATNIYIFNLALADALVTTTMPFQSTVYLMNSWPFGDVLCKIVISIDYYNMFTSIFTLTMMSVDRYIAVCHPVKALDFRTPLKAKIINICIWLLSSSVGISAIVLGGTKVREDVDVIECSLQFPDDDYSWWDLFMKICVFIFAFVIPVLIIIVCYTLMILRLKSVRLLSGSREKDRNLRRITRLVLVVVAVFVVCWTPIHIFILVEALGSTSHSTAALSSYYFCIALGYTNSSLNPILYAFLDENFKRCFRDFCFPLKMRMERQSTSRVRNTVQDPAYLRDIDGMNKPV
# T5 sequence (P41143 whole entry): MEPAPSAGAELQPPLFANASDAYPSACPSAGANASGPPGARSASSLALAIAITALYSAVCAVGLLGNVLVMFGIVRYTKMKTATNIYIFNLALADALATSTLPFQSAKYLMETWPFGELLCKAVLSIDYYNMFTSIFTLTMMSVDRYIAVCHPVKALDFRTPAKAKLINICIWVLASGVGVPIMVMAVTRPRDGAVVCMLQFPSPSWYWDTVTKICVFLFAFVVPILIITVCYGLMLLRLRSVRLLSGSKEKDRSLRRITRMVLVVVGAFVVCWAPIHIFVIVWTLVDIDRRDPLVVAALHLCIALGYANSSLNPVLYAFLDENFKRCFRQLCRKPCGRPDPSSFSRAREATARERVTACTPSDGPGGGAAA
# Chain of 5-hydroxytryptamine receptor 2A (P35363 whole entry): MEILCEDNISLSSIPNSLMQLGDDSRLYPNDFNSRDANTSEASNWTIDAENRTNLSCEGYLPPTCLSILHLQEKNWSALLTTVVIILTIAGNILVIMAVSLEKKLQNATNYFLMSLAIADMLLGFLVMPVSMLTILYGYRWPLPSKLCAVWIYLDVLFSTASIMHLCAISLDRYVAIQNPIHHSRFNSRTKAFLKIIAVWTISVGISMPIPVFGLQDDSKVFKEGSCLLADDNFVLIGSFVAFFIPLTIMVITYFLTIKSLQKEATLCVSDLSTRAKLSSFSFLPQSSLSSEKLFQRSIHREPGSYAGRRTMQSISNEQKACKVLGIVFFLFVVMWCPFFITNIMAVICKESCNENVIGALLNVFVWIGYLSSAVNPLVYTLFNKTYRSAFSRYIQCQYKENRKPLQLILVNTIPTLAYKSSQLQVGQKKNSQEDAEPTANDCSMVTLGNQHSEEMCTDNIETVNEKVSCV
# Chain of Steroidogenic factor 1 (Q13285 whole entry): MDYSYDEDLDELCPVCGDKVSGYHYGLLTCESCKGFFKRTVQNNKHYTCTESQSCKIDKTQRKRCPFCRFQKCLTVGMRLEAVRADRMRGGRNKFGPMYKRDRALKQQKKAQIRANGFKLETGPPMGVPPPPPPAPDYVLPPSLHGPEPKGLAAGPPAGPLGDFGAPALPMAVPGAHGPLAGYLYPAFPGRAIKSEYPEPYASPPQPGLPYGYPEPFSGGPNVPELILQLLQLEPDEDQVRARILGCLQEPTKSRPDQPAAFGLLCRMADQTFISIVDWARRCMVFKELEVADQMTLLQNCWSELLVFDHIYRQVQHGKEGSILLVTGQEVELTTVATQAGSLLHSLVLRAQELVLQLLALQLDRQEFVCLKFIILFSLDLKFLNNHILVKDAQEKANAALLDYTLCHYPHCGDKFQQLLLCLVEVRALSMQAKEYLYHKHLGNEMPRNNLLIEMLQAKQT
# Chain of Botulinum neurotoxin type F (P30996 1-436 limits assumed): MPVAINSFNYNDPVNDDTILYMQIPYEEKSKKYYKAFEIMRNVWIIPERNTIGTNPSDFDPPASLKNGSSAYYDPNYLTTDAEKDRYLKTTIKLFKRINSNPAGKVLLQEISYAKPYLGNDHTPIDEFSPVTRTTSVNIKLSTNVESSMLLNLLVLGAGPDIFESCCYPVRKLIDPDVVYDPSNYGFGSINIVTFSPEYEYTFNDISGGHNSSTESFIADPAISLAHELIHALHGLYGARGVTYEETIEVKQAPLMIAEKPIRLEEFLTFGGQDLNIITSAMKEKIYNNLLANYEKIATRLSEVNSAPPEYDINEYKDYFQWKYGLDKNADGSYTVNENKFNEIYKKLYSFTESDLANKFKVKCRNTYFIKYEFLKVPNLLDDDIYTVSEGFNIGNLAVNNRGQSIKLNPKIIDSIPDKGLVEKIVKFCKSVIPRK
# Chain of Hepatocyte nuclear factor 4-alpha (P41235 whole entry, the tested form may be a part): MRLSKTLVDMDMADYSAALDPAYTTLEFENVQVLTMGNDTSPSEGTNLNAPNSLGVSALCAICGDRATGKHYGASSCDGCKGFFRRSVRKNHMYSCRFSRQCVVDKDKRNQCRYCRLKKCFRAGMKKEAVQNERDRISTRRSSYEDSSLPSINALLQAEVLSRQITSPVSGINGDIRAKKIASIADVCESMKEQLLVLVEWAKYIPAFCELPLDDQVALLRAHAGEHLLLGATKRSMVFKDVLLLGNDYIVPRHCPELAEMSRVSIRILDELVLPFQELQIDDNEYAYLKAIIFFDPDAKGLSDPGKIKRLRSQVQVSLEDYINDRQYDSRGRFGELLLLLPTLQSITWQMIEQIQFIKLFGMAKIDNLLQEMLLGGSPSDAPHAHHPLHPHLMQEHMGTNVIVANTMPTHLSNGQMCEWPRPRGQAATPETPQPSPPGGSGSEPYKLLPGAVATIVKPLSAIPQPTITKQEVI
smiles,measurement,setting,value
c1ccc(N2CCN(Cc3ccsc3)CC2)nc1,EC50,Mu-type opioid receptor [1],92.4 µM (inactive)
same,EC50,[2],0.125 µM (active)
O=C1NC(=O)c2cc(NC(=O)C3CCCO3)ccc21 (stereo not drawn),IC50,[3],2.39 µM (active)
CC1=CC(C)(C)Nc2ccc(OC(=O)C(C)N3C(=O)c4ccccc4C3=O)cc21 (stereo not drawn),EC50,[4],7.55 µM (active)
same,IC50,[5],11.1 µM (inactive)
same,EC50,[6],8.18 µM (active)
same,IC50,[7],> 80 µM (inactive)
COCCCN1C(=O)C(O)=C(C(=O)c2ccc(OC)cc2C)C1c1cccnc1 (stereo not drawn),AC50,Cytochrome P450 3A4,20 µM (inconclusive)
same,Ki,fMet-Leu-Phe receptor,> 66.7 µM (inactive)
Cc1cc2cc(CNC(=O)c3cccc([N+](=O)[O-])c3)ccc2[nH]1,IC50,[8],> 66 µM (inactive)
same,EC50,[9],> 20 µM (inactive)
same,IC50,[10],> 66 µM (inactive)
COc1ccc(C2(C)NC(=O)N(CC(=O)NCCC3=CCCCC3)C2=O)cc1OC (stereo not drawn),EC50,[11],> 112 µM (not active)
same,IC50,[12],35.9 µM (inactive)
same,EC50,[13],> 112 µM (not active)
same,IC50,Steroidogenic factor 1,5.24 µM (active)
same,IC50,[14],35.9 µM (inactive)
CCOc1cc(CN2CCN(c3ncccn3)CC2)ccc1OC,EC50,Mu-type opioid receptor [1],92.5 µM (inactive)
same,EC50,[2],76.1 µM (inactive)
COc1ccccc1CCNC(=O)C1CCN(C(=O)/C=C/c2ccccc2)CC1,IC50,Beta-galactosidase [15],> 80 µM (inactive)
same,IC50,[16],14.6 µM (active)
same,IC50,[17],13.9 µM (active)
CCCC(=O)NC(c1cccs1)c1cc([N+](=O)[O-])c2cccnc2c1O (stereo not drawn),IC50,Prothrombin,83.6 µM (active)
same,IC50,[18],89.3 µM (active)
same,IC50,[19],3.26 µM (active)
same,IC50,Nonstructural protein 1,13.1 µM (active)
CCOC(=O)c1c(SCC(=O)Nc2nccs2)nc(C)c(C)c1C,IC50,cells [20],> 67.5 µM (inactive)
same,IC50,[21],> 67.5 µM (inactive)
Cc1cc(N2CCN(C)CC2)nc2ccc(NC(S)=NCCC(C)C)cc12,EC50,[22],0.746 µM (active)
same,AC50,[23],28.2 µM (active)
same,AC50,[24],1.24 µM (active)
same,EC50,[25],8.05 µM (active)
Nc1cc(N)c2c(c1)C(=O)c1ccccc1-2,IC50,[26],> 122 µM (inactive)
CCCc1cc(=O)oc2cc(OCC(=O)NCCc3ccc(S(N)(=O)=O)cc3)ccc12,IC50,[12],35.9 µM (inactive)
same,IC50,Steroidogenic factor 1,7.47 µM (active)
same,IC50,[14],35.9 µM (inactive)
CC(=O)Nc1cc(-c2ccc(N(C)C)cc2)cn2c(-c3ccc(F)cc3)cnc12,IC50,Beta-galactosidase [15],> 80 µM (inactive)
same,EC50,Melanocortin receptor 4,> 9.91 µM (active)
COc1ccccc1C(CNC(=O)c1ccc(C)c(S(=O)(=O)N2CCCCC2)c1)N1CCCC1 (stereo not drawn),EC50,[9],> 20 µM (inactive)
COC(=O)[C@]12CCCCC=C1N(Cc1ccccc1)C(=O)[C@H](CC(=O)NCCc1ccccc1OC)C2,EC50,[27],2.49 µM (active)
same,IC50,cells [28],27.7 µM (inactive)
same,IC50,[29],4.83 µM (active)
same,EC50,cells [30],> 29.9 µM (inactive)
O=C(NC1CCCCC1)C(C1CC1)n1c(=O)c(-c2ccco2)nc2ccccc21 (stereo not drawn),IC50,[5],2.17 µM (active)
CCOc1ccc(NC(=O)c2ccc3c(c2)N(C)CCS3)cc1,IC50,cells [20],> 67.6 µM (inactive)
same,IC50,[21],> 67.6 µM (inactive)
C(=C\c1ccc2nncn2c1)/c1ccccc1,IC50,[3],1.45 µM (active)
COc1ccc(-c2cc(=O)n(-c3nc4ccccc4[nH]3)[nH]2)cc1,EC50,[31],> 32 µM (inactive)
same,IC50,[32],> 32 µM
same,IC50,[33],> 32 µM (inactive)
same,EC50,[34],> 91.2 µM (inactive)
same,EC50,Mu-type opioid receptor [35],> 32 µM (inactive)
same,EC50,[36],> 91.2 µM (inactive)
same,EC50,Beta-galactosidase [37],> 31.5 µM (inactive)
same,IC50,[38],9.08 µM (active)
CCN(CC)c1ccc(NC(=O)CSc2nc3ccccc3c(=O)n2-c2ccc(C)cc2)cc1,IC50,[39],> 69.5 µM (inactive)
same,IC50,[26],60.3 µM (inactive)
same,IC50,[40],> 69.5 µM (inactive)
